pIC50: −log10 of the molar value.
These molecules were tested against Human RSK2 (Homo sapiens (Human), UniProt P51812) (assay: Human RSK2 Assay (Kinase Glo Plus, residual ATP)). Details: 0.75 nM His-RSK2, 0.75 μM ATP, 1.0 μM S6 Kinase/RSK Substrate Peptide 1.
Type: biochemical
Protocol: Experimental Method A: Human RSK2 Assay
Compounds are assessed for their ability to inhibit the phosphorylation of a substrate peptide by RSK2.
Human RSK2 protein, purchased from Invitrogen, is used to measure kinase activity utilizing Kinase Glo Plus (Promega) a homogeneous assay technology, which uses a luciferin-luciferase based ATP detection reagent to quantify residual ATP. The assay is performed using 0.75 nM His-RSK2, 0.75 μM ATP and 1.0 μM S6 Kinase/RSK Substrate Peptide 1 (Upstate, catalog #12-124), in assay buffer consisting of 25 mM HEPES, pH 7.5, 10 mM MgCl2, 5 mM MnCl2, 50 mM KCl, 0.2% BSA, 0.01% CHAPS, 100 μM Na3VO4, 0.5 mM DTT, and 1% DMSO. Solutions of test compounds at various concentrations are prepared by 1:3 fold serial dilution of a 1 mM solution of compound in DMSO. The DMSO solutions are further diluted with assay buffer to a final concentration of DMSO of 5%.
The assay is performed in a 384 well, white, non-binding plate (Corning, catalogue #3574). Solutions of test compounds (10 μL) are transferred to a dry assay plate, followed by addition of 20 μL kinase and 20 μL ATP+Substrate Peptide 1 described above. The kinase reaction mixture is incubated for 90 minutes at 28° C. followed by addition of 30 μL of ATP detection reagent for 15 minutes at room temperature. The relative light unit (RLU) signal is measured on a LJL Analyst (Molecular Devices) in luminescence mode using 384 aperture. The RLU signals were converted to percent of control (POC) values using the formula: POC=100*(BCTRL−Signal)/(BCTRL−PCTRL), where Signal is the test well RLU signal, BCTRL is the average of background (negative control), which consists of ATP+peptide and compound buffer, well signals on the plate, and PCTRL is the average of positive control, which consists of kinase, ATP+peptide, and compound buffer, well signals on the plate. For concentration-responsive compounds, POC as a function of test compound concentration are fitted to a 4-parameter logistic equation of the form: Y=A+(B−A)/[1+(x/C)^D], where A, B, C, and D are fitted parameters (parameter B is fixed at zero POC), and x and y are the independent and dependent variables, respectively. The IC50 (50% inhibitory concentration) is determined as the inflection point parameter, C. Experimental Method B: Human RSK2 Trans-Reporter Assay

Chain of Human RSK2 (P51812 whole entry): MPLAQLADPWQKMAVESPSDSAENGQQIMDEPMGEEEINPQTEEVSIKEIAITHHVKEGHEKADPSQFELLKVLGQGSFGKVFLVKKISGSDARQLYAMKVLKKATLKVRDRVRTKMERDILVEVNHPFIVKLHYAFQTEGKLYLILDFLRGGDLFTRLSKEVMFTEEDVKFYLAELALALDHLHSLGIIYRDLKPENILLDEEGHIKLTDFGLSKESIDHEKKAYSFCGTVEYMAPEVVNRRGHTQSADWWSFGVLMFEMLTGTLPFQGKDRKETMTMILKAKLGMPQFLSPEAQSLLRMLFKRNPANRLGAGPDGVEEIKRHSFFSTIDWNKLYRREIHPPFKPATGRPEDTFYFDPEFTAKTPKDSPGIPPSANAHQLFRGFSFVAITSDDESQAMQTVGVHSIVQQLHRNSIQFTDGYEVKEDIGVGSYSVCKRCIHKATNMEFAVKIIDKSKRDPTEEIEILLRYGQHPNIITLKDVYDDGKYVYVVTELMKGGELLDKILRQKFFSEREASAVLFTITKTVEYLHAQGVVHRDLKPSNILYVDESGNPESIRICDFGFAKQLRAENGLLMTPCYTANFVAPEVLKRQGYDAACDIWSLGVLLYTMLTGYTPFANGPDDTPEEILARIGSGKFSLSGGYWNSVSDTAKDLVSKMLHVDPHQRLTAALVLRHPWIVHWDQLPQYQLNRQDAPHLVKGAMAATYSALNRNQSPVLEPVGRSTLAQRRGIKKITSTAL

| pIC50 | SMILES |
| --- | --- |
| 7.64 | CCn1c(NC(=O)c2ccc3nc4n(c3c2)CCCNC4=O)nc2cccnc21 [Example 17, N-(3-ethyl-3H-imidazol[4,5-b]pyridin-2-yl)-1-oxo-2,3,4,5-tetrahydro-1H-[1,4]diazepino[1,2-a]benzimidazole-8-carboxamide] |
| 6.90 | CC(C)c1cc(NC(=O)c2ccc3cc4n(c3n2)CC(C)(C)CNC4=O)no1 [Example 89, 9,9-dimethyl-6-oxo-N-[5-(propan-2-yl)-1,2-oxazol-3-yl]-7,8,9,10-tetrahydro-6H-pyrido[3′,2′:4,5]pyrrolo[1,2-a][1,4]diazepine-2-carboxamide] |
| 7.60 | CC(C)n1ncc2cc(NC(=O)c3ccc4cc5n(c4n3)CCCNC5=O)cnc21 [Example 30, 6-oxo-N-[1-(propan-2-yl)-1H-pyrazolo[3,4-b]pyridin-5-y]-7,8,9,10-tetrahydro-6H-pyrido[3′,2′:4,5]pyrrolo[1,2-a][1,4]diazepine-2-carboxamide] |
| 7.14 | Cn1cc(NC(=O)c2ccc3cc4n(c3n2)CC(C)(C)CNC4=O)cn1 [Example 42, 9,9-dimethyl-N-(1-methyl-1H-pyrazol-4-yl)-6-oxo-7,8,9,10-tetrahydro-6H-pyrido[3′,2′:4,5]pyrrolo[1,2-a][1,4]diazepine-2-carboxamide] |
| 8.28 | Cc1cc(NC(=O)c2ccc3cc4n(c3n2)C(C)CCNC4=O)no1 (stereo not drawn) [Example 82, 10-methyl-N-(5-methyl-1,2-oxazol-3-yl)-6-oxo-7,8,9,10-tetrahydro-6H-pyrido[3′,2′:4,5]pyrrolo[1,2-a][1,4]diazepine-2-carboxamide] |
| 8.80 | CC1CCNC(=O)c2cc3ccc(C(=O)Nc4cnc5c(cnn5CC5CCOC5)c4)nc3n21 (stereo not drawn) [Example 35, 10-methyl-6-oxo-N-[1-(tetrahydrofuran-3-ylmethyl)-1H-pyrazolo[3,4-b]pyridin-5-yl]-7,8,9,10-tetrahydro-6H-pyrido[3′,2′:4,5]pyrrolo[1,2-a][1,4]diazepine-2-carboxamide] |
| 6.71 | CCn1c(NC(=O)c2ccc3cc4n(c3n2)CC(C)(C)CNC4=O)nc2ccccc21 [Example 56, N-(1-ethyl-1H-benzimidazol-2-yl)-9,9-dimethyl-6-oxo-7,8,9,10-tetrahydro-6H-pyrido[3′,2′:4,5]pyrrolo[1,2-a][1,4]diazepine-2-carboxamide] |
| 6.53 | NC(=O)c1ccccc1NC(=O)c1ccc2nc3n(c2c1)CCCNC3=O [Example 9, N-(2-carbamoylphenyl)-1-oxo-2,3,4,5-tetrahydro-1H-[1,4]diazepino[1,2-a]benzimidazole-8-carboxamide] |
| 6.20 | CC(C)n1c(NC(=O)c2ccc3cc4n(c3n2)CCCNC4=O)nc2ccccc21 [Example 53, 6-oxo-N-[1-(propan-2-yl)-1H-benzimidazol-2-yl]-7,8,9,10-tetrahydro-6H-pyrido[3′,2′:4,5]pyrrolo[1,2-a][1,4]diazepine-2-carboxamide] |
| 7.82 | CCn1c(NC(=O)c2ccc3cc4n(c3n2)C(C)CCNC4=O)nc2ccccc21 (stereo not drawn) [Example 69, N-(1-ethyl-1H-benzimidazol-2-yl)-10-methyl-6-oxo-7,8,9,10-tetrahydro-6H-pyrido[3′,2′:4,5]pyrrolo[1,2-a][1,4]diazepine-2-carboxamide] |
| 7.58 | CCn1c(NC(=O)c2ccc3cc4n(c3n2)[C@H](C)CNC4=O)nc2ccccc21 [Example 72, (9R)-N-(1-ethyl-1H-benzimidazol-2-yl)-9-methyl-6-oxo-6,7,8,9-tetrahydropyrido[3′,2′:4,5]pyrrolo[1,2-a]pyrazine-2-carboxamide] |
| 6.89 | CNC(=O)c1csc(NC(=O)c2ccc3cc4n(c3n2)C(C)CNC4=O)n1 (stereo not drawn) [Example 102, 9-methyl-N-[4-(methylcarbamoyl)-1,3-thiazol-2-yl]-6-oxo-6,7,8,9-tetrahydropyrido[3′,2′:4,5]pyrrolo[1,2-a]pyrazine-2-carboxamide] |
| 7.04 | CC1(C)CNC(=O)c2cc3ccc(C(=O)Nc4cnc5ccccc5c4)nc3n2C1 [Example 39, 9,9-dimethyl-6-oxo-N-(quinolin-3-yl)-7,8,9,10-tetrahydro-6H-pyrido[3′,2′:4,5]pyrrolo[1,2-a][1,4]diazepine-2-carboxamide] |
| 7.46 | Cn1c(NC(=O)c2ccc3nc4n(c3c2)CCCNC4=O)nc2ccccc21 [Example 2, N-(1-methyl-1H-benzimidazol-2-yl)-1-oxo-2,3,4,5-tetrahydro-1H-[1,4]diazepino[1,2-a]benzimidazole-8-carboxamide] |
| 7.70 | O=C(Nc1cnc2c(cnn2C2CCOCC2)c1)c1ccc2cc3n(c2n1)CCCNC3=O [Example 33, 6-oxo-N-[1-(tetrahydro-2H-pyran-4-yl)-1H-pyrazolo[3,4-b]pyridin-5-yl]-7,8,9,10-tetrahydro-6H-pyrido[3′,2′:4,5]pyrrolo[1,2-a][1,4]diazepine-2-carboxamide] |
| 7.24 | C[C@@H]1NC(=O)c2cc3ccc(C(=O)Nc4cc(Cc5ccccc5)on4)nc3n2[C@H]1C (relative stereo) [Example 100, N-(5-benzyl-1,2-oxazol-3-yl)-trans-8,9-dimethyl-6-oxo-6,7,8,9-tetrahydropyrido[3′,2′:4,5]pyrrolo[1,2-a]pyrazine-2-carboxamide] |
| 7.30 | CC1(C)CNC(=O)c2cc3ccc(C(=O)Nc4cnn(C(C)(C)C)c4)nc3n2C1 [Example 45, N-(1-tert-butyl-1H-pyrazol-4-yl)-9,9-dimethyl-6-oxo-7,8,9,10-tetrahydro-6H-pyrido[3′,2′:4,5]pyrrolo[1,2-a][1,4]diazepine-2-carboxamide] |
| 6.42 | Cc1cc(NC(=O)c2ccc3cc4n(c3n2)[C@@H](C)CNC4=O)no1 [Example 83, (9S)-9-methyl-N-(5-methyl-1,2-oxazol-3-yl)-6-oxo-6,7,8,9-tetrahydropyrido[3′,2′:4,5]pyrrolo[1,2-a]pyrazine-2-carboxamide] |
| 7.43 | O=C(Nc1cccnc1)c1ccc2cc3n(c2n1)CCCNC3=O [Example 27, 6-oxo-N-(pyridin-3-yl)-7,8,9,10-tetrahydro-6H-pyrido[3′,2′:4,5]pyrrolo[1,2-a][1,4]diazepine-2-carboxamide] |
| 8.59 | Cc1cc(NC(=O)c2ccc3cc4n(c3n2)[C@@H](C)[C@@H](C)NC4=O)no1 (relative stereo) [Example 85, Cis-8,9-dimethyl-N-(5-methyl-1,2-oxazol-3-yl)-6-oxo-6,7,8,9-tetrahydropyrido[3′,2′:4,5]pyrrolo[1,2-a]pyrazine-2-carboxamide] |
| 8.42 | Cc1ccnc(NC(=O)c2ccc3cc4n(c3n2)CCCNC4=O)c1 [Example 38, N-(4-methylpyridin-2-yl)-6-oxo-7,8,9,10-tetrahydro-6H-pyrido[3′,2′:4,5]pyrrolo[1,2-a][1,4]diazepine-2-carboxamide] |
| 8.29 | C[C@H]1NC(=O)c2cc3ccc(C(=O)Nc4cc(Cc5ccccc5)on4)nc3n2[C@H]1C (relative stereo) [Example 99, N-(5-benzyl-1,2-oxazol-3-yl)-cis-8,9-dimethyl-6-oxo-6,7,8,9-tetrahydropyrido[3′,2′:4,5]pyrrolo[1,2-a]pyrazine-2-carboxamide] |
| 8.64 | NC(=O)c1ccccc1NC(=O)c1ccc2cc3n(c2n1)CCCNC3=O [Example 26, N-(2-carbamoylphenyl)-6-oxo-7,8,9,10-tetrahydro-6H-pyrido[3′,2′:4,5]pyrrolo[1,2-a][1,4]diazepine-2-carboxamide] |
| 6.61 | CN(C)CCCn1c(NC(=O)c2ccc3cc4n(c3n2)CCCNC4=O)nc2ccccc21 [Example 57, N-{1-[3-(dimethylamino)propyl]-1H-benzimidazol-2-yl}-6-oxo-7,8,9,10-tetrahydro-6H-pyrido[3′,2′:4,5]pyrrolo[1,2-a][1,4]diazepine-2-carboxamide] |
| 8.01 | CC(C)(C)n1cc(NC(=O)c2ccc3cc4n(c3n2)CCCNC4=O)cn1 [Example 44, N-(1-tert-butyl-1H-pyrazol-4-yl)-6-oxo-7,8,9,10-tetrahydro-6H-pyrido[3′,2′:4,5]pyrrolo[1,2-a][1,4]diazepine-2-carboxamide] |
| 5.81 | Cc1cc(NC(=O)c2ccc3nc4n(c3c2)CCCNC4=O)no1 [Example 20, N-(5-methyl-1,2-oxazol-3-yl)-1-oxo-2,3,4,5-tetrahydro-1H-[1,4]diazepino[1,2-a]benzimidazole-8-carboxamide] |
| 7.92 | C[C@H]1CNC(=O)c2cc3ccc(C(=O)Nc4cnn(Cc5ccccc5)c4)nc3n21 [Example 60, (9S)-N-(1-benzyl-1H-pyrazol-4-yl)-9-methyl-6-oxo-6,7,8,9-tetrahydropyrido[3′,2′:4,5]pyrrolo[1,2-a]pyrazine-2-carboxamide] |

Source: patent US9073926B2, “Heterocyclic compounds containing a pyrrolopyridine or benzimidazole core” (Boehringer Ingelheim International GmbH, priority 2009, dated 2015)
